Source: article PMC9851200, “Multiparameter phenotypic screening for endogenous TFEB and TFE3 translocation identifies novel chemical series modulating lysosome function” (Autophagy, 2022)

Key:
Type in all cases: binding
[1] = target: T1, kinases (KINOMEscan panel) (Homo sapiens, UniProt Q13976); conditions: kinase PRKG1; NEW KINOMEscan
T1 sequence (Q13976 1-671): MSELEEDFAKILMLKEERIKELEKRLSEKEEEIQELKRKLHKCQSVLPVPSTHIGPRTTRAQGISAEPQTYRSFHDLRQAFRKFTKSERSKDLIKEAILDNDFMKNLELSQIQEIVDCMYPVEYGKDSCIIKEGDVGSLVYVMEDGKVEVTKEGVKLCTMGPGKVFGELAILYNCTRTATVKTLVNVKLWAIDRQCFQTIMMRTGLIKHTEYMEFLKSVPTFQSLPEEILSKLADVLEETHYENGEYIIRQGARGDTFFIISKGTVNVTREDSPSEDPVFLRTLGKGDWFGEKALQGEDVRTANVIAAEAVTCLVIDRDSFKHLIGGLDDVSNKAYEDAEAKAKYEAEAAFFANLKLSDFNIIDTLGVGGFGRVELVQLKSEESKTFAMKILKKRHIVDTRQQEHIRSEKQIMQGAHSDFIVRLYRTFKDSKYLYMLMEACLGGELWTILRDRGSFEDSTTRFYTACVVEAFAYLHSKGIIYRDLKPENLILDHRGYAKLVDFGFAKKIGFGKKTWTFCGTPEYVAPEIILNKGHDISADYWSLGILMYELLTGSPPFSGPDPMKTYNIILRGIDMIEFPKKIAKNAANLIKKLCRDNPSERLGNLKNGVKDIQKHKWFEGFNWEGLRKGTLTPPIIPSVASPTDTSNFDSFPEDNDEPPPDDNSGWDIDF

[2] = target: T2, kinases (KINOMEscan panel) (Homo sapiens, UniProt Q8TBX8); conditions: PIP4K2C; NEW KINOMEscan
T2 sequence (Q8TBX8 1-421): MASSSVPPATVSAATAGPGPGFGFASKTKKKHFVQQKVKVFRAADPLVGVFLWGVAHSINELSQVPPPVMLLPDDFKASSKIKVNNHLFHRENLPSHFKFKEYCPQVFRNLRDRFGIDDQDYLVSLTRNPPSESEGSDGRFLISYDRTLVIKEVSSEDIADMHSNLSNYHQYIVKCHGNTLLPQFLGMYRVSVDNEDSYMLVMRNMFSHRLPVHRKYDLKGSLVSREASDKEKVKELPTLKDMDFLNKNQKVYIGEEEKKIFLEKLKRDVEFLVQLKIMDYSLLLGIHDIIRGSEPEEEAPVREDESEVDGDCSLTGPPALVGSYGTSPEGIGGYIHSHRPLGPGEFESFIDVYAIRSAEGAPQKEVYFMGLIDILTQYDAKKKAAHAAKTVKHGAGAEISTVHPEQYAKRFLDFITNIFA

[3] = target: kinases (KINOMEscan panel) (Homo sapiens, UniProt Q96SB4); conditions: kinase SRPK1; NEW KINOMEscan
Sequence of kinases (KINOMEscan panel) (Homo sapiens, UniProt Q96SB4) (Q96SB4 whole entry): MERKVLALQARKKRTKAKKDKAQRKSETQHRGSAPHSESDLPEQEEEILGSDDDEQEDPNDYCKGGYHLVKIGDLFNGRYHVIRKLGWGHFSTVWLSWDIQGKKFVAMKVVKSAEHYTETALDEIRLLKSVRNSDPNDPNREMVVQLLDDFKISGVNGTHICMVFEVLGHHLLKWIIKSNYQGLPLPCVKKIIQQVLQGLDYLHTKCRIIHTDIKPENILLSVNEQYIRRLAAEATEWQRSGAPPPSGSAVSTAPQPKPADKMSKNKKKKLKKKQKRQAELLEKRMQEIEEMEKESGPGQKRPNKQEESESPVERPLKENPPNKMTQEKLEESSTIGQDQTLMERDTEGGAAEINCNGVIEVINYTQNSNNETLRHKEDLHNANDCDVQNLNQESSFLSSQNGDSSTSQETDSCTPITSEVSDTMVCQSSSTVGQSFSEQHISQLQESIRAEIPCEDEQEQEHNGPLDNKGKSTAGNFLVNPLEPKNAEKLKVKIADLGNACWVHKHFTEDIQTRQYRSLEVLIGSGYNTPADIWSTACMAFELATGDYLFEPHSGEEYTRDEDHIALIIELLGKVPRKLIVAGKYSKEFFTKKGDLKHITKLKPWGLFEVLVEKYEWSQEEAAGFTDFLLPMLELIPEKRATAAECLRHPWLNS

[4] = target: kinases (KINOMEscan panel) (Homo sapiens, UniProt P10721, D816V); conditions: kinase KIT(D816V); NEW KINOMEscan
Sequence of kinases (KINOMEscan panel) (Homo sapiens, UniProt P10721, D816V) (P10721 26-976 D816V): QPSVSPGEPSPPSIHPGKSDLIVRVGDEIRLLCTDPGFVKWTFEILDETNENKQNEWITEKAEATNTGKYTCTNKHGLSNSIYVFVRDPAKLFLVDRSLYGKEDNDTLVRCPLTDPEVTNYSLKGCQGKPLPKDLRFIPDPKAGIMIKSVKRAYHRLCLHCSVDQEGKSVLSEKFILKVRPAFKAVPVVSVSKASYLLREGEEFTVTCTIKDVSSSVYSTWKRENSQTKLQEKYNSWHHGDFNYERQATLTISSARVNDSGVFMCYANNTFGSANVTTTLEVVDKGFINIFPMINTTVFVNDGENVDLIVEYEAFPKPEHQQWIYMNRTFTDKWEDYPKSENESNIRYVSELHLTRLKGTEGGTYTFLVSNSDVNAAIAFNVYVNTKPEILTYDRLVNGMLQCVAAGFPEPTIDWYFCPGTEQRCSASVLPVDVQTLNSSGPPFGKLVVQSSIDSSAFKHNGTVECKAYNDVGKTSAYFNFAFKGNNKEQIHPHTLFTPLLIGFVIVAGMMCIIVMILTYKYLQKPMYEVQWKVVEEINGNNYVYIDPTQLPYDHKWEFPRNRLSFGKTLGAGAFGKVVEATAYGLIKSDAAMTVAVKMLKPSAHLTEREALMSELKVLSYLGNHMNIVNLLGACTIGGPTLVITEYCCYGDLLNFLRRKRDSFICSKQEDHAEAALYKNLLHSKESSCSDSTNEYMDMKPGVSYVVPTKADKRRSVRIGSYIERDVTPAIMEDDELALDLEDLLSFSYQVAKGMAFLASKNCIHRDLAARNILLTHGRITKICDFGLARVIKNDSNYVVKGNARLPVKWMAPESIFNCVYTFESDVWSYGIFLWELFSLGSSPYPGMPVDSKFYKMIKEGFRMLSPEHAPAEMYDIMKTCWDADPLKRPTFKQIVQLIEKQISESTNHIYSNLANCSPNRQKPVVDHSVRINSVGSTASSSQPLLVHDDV

[5] = target: T3, kinases (KINOMEscan panel) (Homo sapiens, UniProt Q9NRH2); conditions: kinase SNRK; NEW KINOMEscan
T3 sequence (Q9NRH2 1-765): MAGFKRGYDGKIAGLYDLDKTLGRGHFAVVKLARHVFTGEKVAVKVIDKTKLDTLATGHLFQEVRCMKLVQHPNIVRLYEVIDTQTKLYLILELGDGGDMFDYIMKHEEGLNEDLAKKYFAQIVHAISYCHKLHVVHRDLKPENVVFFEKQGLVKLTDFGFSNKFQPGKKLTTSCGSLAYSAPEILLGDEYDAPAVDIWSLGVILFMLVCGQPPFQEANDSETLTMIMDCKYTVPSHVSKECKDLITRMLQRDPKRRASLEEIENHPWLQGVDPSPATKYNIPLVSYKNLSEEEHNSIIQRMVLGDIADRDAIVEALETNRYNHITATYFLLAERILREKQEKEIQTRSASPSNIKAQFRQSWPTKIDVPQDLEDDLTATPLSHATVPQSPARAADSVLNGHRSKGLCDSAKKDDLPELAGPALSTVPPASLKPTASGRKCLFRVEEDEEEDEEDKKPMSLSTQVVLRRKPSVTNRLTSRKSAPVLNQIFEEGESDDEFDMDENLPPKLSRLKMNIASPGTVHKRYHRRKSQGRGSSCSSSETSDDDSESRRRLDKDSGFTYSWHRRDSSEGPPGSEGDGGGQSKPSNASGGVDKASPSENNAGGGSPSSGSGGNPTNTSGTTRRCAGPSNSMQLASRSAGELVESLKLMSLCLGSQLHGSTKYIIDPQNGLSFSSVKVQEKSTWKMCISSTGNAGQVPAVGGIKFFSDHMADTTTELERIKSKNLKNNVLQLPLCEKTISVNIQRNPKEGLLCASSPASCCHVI

[6] = target: kinases (KINOMEscan panel) (Homo sapiens, UniProt P51451); conditions: kinase BLK; NEW KINOMEscan
Sequence of kinases (KINOMEscan panel) (Homo sapiens, UniProt P51451) (P51451 whole entry): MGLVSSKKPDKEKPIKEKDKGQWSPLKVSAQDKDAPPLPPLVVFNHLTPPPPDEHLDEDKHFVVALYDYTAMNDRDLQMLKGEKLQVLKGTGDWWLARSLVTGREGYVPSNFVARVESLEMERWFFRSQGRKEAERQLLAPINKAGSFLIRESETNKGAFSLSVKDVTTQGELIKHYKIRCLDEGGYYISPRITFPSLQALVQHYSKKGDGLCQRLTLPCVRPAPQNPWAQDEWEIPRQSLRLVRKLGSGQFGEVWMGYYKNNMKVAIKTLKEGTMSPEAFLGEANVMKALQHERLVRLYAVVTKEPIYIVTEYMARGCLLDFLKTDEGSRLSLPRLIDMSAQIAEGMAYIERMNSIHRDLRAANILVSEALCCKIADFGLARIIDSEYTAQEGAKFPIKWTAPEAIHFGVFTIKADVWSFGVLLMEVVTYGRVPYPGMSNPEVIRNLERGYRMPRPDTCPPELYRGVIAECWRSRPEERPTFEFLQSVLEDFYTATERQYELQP

[7] = target: kinases (KINOMEscan panel) (Homo sapiens, UniProt P08631); conditions: kinase HCK; NEW KINOMEscan
Sequence of kinases (KINOMEscan panel) (Homo sapiens, UniProt P08631) (P08631 whole entry): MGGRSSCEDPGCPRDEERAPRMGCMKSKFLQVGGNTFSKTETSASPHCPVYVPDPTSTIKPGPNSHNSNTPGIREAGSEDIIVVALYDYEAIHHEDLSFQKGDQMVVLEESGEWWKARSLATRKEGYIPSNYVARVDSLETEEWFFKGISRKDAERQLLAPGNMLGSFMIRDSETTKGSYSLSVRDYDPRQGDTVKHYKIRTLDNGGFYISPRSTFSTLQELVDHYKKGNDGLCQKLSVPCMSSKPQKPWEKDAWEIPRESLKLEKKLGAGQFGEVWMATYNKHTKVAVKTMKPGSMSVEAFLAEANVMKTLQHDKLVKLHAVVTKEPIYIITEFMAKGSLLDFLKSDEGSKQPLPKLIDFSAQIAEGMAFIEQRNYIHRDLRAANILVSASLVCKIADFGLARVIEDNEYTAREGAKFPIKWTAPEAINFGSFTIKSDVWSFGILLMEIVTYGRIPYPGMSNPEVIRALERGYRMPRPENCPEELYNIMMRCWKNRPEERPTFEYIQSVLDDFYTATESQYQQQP

[8] = target: kinases (KINOMEscan panel) (Homo sapiens, UniProt Q9H4B4); conditions: kinase PLK3; NEW KINOMEscan
Sequence of kinases (KINOMEscan panel) (Homo sapiens, UniProt Q9H4B4) (Q9H4B4 whole entry): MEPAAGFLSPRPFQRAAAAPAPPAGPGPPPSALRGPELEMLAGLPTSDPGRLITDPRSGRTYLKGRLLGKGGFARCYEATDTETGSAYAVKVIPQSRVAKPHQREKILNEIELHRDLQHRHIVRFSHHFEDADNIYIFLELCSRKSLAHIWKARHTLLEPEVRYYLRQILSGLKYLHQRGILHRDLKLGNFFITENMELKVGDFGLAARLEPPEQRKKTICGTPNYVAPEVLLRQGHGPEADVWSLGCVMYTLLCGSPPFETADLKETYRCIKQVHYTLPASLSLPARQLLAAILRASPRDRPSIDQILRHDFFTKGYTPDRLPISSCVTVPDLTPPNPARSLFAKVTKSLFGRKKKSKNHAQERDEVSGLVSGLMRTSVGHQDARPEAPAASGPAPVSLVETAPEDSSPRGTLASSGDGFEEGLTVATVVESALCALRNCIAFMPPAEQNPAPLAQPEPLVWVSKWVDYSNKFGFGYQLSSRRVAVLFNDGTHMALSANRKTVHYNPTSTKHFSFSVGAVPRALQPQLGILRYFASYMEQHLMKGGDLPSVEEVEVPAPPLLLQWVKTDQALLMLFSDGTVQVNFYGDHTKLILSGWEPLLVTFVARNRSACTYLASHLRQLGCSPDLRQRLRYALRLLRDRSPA

Row | Structure (SMILES) | KINOMEscan PRKG1 [1] | KINOMEscan PIP4K2C [2] | KINOMEscan SRPK1 [3] | KINOMEscan KIT(D816V) [4] | KINOMEscan SNRK [5] | KINOMEscan BLK [6] | KINOMEscan HCK [7] | KINOMEscan PLK3 [8]
1 | Cc1cccc(-c2nc(Nc3ccc4nn(C)cc4c3)c3ccccc3n2)n1 [NK167] | 0 | 0 | 2 | 0 | 6 | 0 | 14 | 16
2 | Cc1cccc(-c2nc(N(C)c3ccc4ncsc4c3)c3ccccc3n2)n1 [NK-161] | 10 | 0 | 7 | 7 | 7 | 0 | 16 | 13
